Entries after “also recorded” stand apart in the source; their conditions may differ.
B1: CCL4: CC chemokine (protein, UniProt P13236 24-92, looked up)
C-C motif chemokine 4: APMGSDPPTACCFSYTARKLPRNFVVDYYETSSLCSQPAVVFQTKRSKQVCADPSESWVQEYVYDLELN
B2: CXCL16: CXC chemokine (protein, UniProt Q9H2A7 30-254, looked up)
C-X-C motif chemokine 16: NEGSVTGSCYCGKRISSDSPPSVQFMNRLRKHLRAYHRCLYYTRFQLLSWSVCGGNKDPWVQELMSCLDLKECGHAYSGIVAHQKHLLPTSPPISQASEGASSDIHTPAQMLLSTLQSTQRPTLPVGSLSSDKELTRPNETTIHTAGHSLAAGPEAGENQKQPEKNAGPTARTSATVPVLCLLAIIFILTAALSYVLCKRRRGQSPQSSPDLPVHYIPVAPDSNT

Columns and labels:
MDA-MB-231 cells = assay: In vitro killing assay: human neutrophils co-cultured with luciferase labelled MDA-MB-231 cells; type: cell-based; conditions: naïve human neutrophils:tumor cells 1:1, chemokine 100 ng/ml (rhG-CSF 20 ng/ml), overnight
From the text: Luciferase is under a constitutive promoter so cell death results in a decrease in luciferase activity because there is no transcription/translation of the lucierferase gene. The assay itself requires lysing of the cell to release the luciferase to mix with the luciferin and measure the luminescence. But it isn't that they dying cell releases luciferase. More signal means more luciferase which means more live cells. […]. […] Nave human neutrophils were co-cultured with MDA-MB-231 cells. […] Cells were seeded at a ratio of human neutrophils:human tumor cells=1:1.
(§1) Antibodies used for immunohistochemistry—MMP9, F4/80 and CCR2 (all from AbCam), Myeloperoxidase (Dako), Ly-6G and Cd11b (both from BD), and Cleaved Caspase 3 (Cell signalling). Antibodies used for western blotting—Actin (Sigma), CCL2 (AbCam) and CCL5 (R&D) p-SMAD2 (cell signalling). Antibodies used for FACS analysis FITC-Ly-6G, FITC-Cd11b, FITC-F4/80, FITC-Cd34 and FITC-c-Kit (all from BD) and VEGFR1-AP (R&D). Neutrophil Depletion Neutrophil depletion was achieved using daily IP injections of 12.5 μg Rat anti-Gr-1 antibody (BD) or Rat anti-Ly-6G antibody (BD) starting on day 3 post tumour engraftment. Starting on day 14, neutrophil depleting antibodies were administered twice daily. Control mice were injected with […] Rat isotype control (BD). Neutrophil depletion was monitored by manual blood differentials and FACS analysis. Flow Cytometry Peripheral blood was collected into EDTA-coated tubes, washed and resuspended in FACS buffer solution (PBS, 2% heat-inactivated FCS, 5 mM EDTA, and 0.02% sodium azide). The samples were blocked with […] and then incubated with fluorophore-conjugated antibodies. Erythrocytes were then lysed with FACS lysing solution (BD Biosciences) and the cell suspensions were analyzed on a FACSCalibur (BD Biosciences). Colony Formation Assay Female nude mice were orthotopically injected with 5×10^6 puromicin resistant 4T1 cells. On days 7 and 14 post tumour engraftment the mice were sacrificed and perfused with PBS. The lungs and livers were removed, washed with PBS and dissociated with Collagenase A (Roche). The single cell suspension was then plated onto puromicin containing media and selected for 14 day. Colonies were stained with Methylene-Blue and counted manually. Mouse Neutrophil Purification Whole blood was collected by cardiac puncture using heparinized (Sigma) syringe. The blood was diluted with 5 volumes of PBS containing 0.5% BSA and subjected to a discontinuous Histopaque (Sigma) gradient (1.077 and 1.119). Neutrophils were collected from the 1.077-1.119 interface, lymphocytes and monocytes collected from the plasma-1.077 interface. RBCs were eliminated by hypotonic lysis. The cells were washed twice with PBS-BSA and re-suspended in OptiMEM (Invitrogen) 0.5% FBS in a final concentration of 2×10^6 cells/ml. Neutrophil purity and viability were determined visually and were consistently >98%. Human Neutrophil Purification As part of a Memorial Sloan-Kettering Cancer Center institutionally approved protocol, blood samples (˜10 cc) were collected from healthy volunteers or from patients who were already having blood drawn for pre-surgical testing. Patients were consented accordingly as part of the approved protocol. […] Patients had either mastectomies or lumpectomies planned and had blood drawn prior to definitive surgical removal of their primary tumor or chemotherapy. Blood samples were transferred to the lab for analysis no more than 1 hour post-blood draw. Heparinzed blood (20 U/ml final) was mixed with an equal volume of Dextran 500 (3% in saline) and incubated 30 minutes at room temperature. The leukocyte-rich supernatant was layered on top of histopaque 1077 (Sigma) and centrifuged. Neutrophils, collected in the pellet fraction, were resuspended in 10 ml 0.2% NaCl for 30 seconds to remove contaminating erythrocytes. Isotonicity was restored by the addition of 10 ml 1.6% NaCl. […]

4T1 cells [1] = assay: In vitro killing assay: naïve mouse neutrophils co-cultured with luciferase labelled 4T1 cells in the presence of chemokines; type: cell-based; conditions: naïve mouse neutrophils co-cultured with 4T1 cells, chemokine 20 ng/ml, overnight
From the text: as §1, with “NaCl. Neutrophils were than washed three times in Hanks's balanced salt solution and resuspended in RPMI+FCS2%. In vitro Killing Assay Luciferase labelled cells (5,000/well) were plated on a 96-well, flat bottom white polystyrene tissue culture plate in OptiMEM 0.5% FBS (mouse neutrophils) or RPMI 2% FBS (human neutrophils). 4 hours later, purified neutrophils (100,000/well for mouse neutrophils and 5000 for human neutrophils) were added to the plated tumour cells and co-cultured overnight.” for “NaCl.”

4T1 cells [2] = assay: In vitro killing assay: TENs co-cultured with 4T1 cells in the presence of inhibitors or TGF-β; type: cell-based, mouse; conditions: for neutrophil (TEN) mediated tumour-cell killing in the presence of inhibitor: TENs + 4T1 cells overnight, Apocynin 100 μM, Catalase 1,000 u/ml, Superoxide Dismutase 1,000 u/ml, Taurine 50 mM; for TEN mediated in vitro killing of 4T1 cells in the presence of TGF-β: picomolar concentrations (up to 200 pMolar)
From the text: as §1, with “NaCl. Neutrophils were than washed three times in Hanks's balanced salt solution and resuspended in RPMI+FCS2%. In vitro Killing Assay Luciferase labelled cells (5,000/well) were plated on a 96-well, flat bottom white polystyrene tissue culture plate in OptiMEM 0.5% FBS (mouse neutrophils) or RPMI 2% FBS (human neutrophils). 4 hours later, purified neutrophils (100,000/well for mouse neutrophils and 5000 for human neutrophils) were added to the plated tumour cells and co-cultured overnight.” for “NaCl.”

4T1 cells [3] = assay: In vivo stimulation of neutrophils with chemokines, purified neutrophils co-cultured with 4T1 cells; type: cell-based, mouse; conditions: healthy mice treated in vivo with G-CSF alone or G-CSF plus chemokine
Experimental: A. To test which chemokines may participate in the stimulation of neutrophils, neutrophils purified from healthy mice were co-culture with luciferase labeled 4T1 cells in the presence (20 ng/ml of chemokine) or absence of certain chemokines for an overnight incubation. […] B. To test which chemokines are sufficient for in vivo stimulation of neutrophils healthy mice were treated with G-CSF (to boost neutrophil numbers) and either CCL2, CCL5 or CXCL1. Control mice were treated with G-CSF alone. Neutrophils were purified from these mice and co-cultured with Luciferase-labeled 4T1 cells. […] Conclusion—CCL2 and to a lesser degree CCL5 can stimulate tumor cell killing both in vitro and in vivo.

Molecule	neutrophil cytotoxicity / neutrophil mediated killing of MDA-MB-231 cells (MDA-MB-231 cells)	neutrophil mediated killing of 4T1 cells (tumor cell viability by luciferase activity) (4T1 cells [1])	further results
hCCL2: human CCL2 from R&D, used at 100 ng/ml	induces neutrophil mediated cell killing; also recorded: induce the killing of human MDA-MB-231 in vitro		
CXCL12: CXC chemokine	significantly increase neutrophil cytotoxicity	no significant effect on tumor-cell viability	
Catalase			neutrophil (TEN) mediated tumour-cell killing in the presence of inhibitor (4T1 cells [2]): completely inhibits tumour-cell killing; neutrophil (TEN) mediated tumour-cell killing in the presence of inhibitor (4T1 cells [2]; listed as catalase): completely inhibits cell killing
CXCL1: CXC chemokine	to a lesser extent CXCL1 significantly increase neutrophil cytotoxicity	no significant effect on tumor-cell viability	viability of 4T1 cells co-cultured with neutrophils purified from chemokine treated mice (4T1 cells [3]): did not induce a reduction in cell viability
hCCL5: human CCL5 from R&D, used at 100 ng/ml	induces neutrophil mediated cell killing; also recorded: induce the killing of human MDA-MB-231 in vitro		
mCCL2: mouse CCL2 from R&D, used at 20 ng/ml		induces neutrophil mediated cell killing; also recorded: induced tumour cell killing in vitro	
CCL3: CC chemokine	significantly increase neutrophil cytotoxicity	no significant effect on tumor-cell viability	
Superoxide Dismutase			neutrophil (TEN) mediated tumour-cell killing in the presence of inhibitor (4T1 cells [2]): does not; neutrophil (TEN) mediated tumour-cell killing in the presence of inhibitor (4T1 cells [2]; listed as superoxide dismutase): did not inhibit cell death
NCCS(=O)(=O)O [Taurine]			neutrophil (TEN) mediated tumour-cell killing in the presence of inhibitor (4T1 cells [2]): does not inhibit tumour-cell killing; neutrophil (TEN) mediated tumour-cell killing in the presence of inhibitor (4T1 cells [2]; listed as taurine): did not reduce tumour-cell killing
TGF-β			TEN mediated in vitro killing of 4T1 cells in the presence of TGF-β (4T1 cells [2]): dramatic inhibitory effect; TEN mediated in vitro killing of 4T1 cells in the presence of TGF-β (4T1 cells [2]; listed as TGF-Beta): dramatically inhibited TENs cytotoxicity towards tumour cells
B1	but not CCL4 significantly increase neutrophil cytotoxicity	significant reduction in tumor cell viability	
B2	significantly increase neutrophil cytotoxicity	significant reduction in tumor cell viability	
